{ppp} = triphosphate group
test system: human primary monocytes; test: IFN-α production in human primary monocytes transfected with RNA (ELISA); format: cell-based; settings: 200 ng RNA transfected, 24 hours, ELISA

Substance	IFN-α production in monocytes
5′-PPPGGG AGACAGGUUUUUUUUUUUUUUUUUUUUU-3′ (GGGAGACAGGUUUUUUUUUUUUUUUUUUUUU; RNA, 5' {ppp}, backbone not given here) [tri-poly U]	equally potent
5′-PPPGGGAGACAGGAAAAAAAAAAAAAAAAAAAAA-3′ [tri-poly A]	equally potent

same assay, conditions: adenosine-initiated in vitro transcribed RNA oligonucleotides, FIG. 13

Substance	IFN-α-inducing activity conferred by the 5′ 4-nucleotide sequence
agucggggac acacacacac acacacacac (AGUCGGGGACACACACACACACACACACAC; RNA, 5' {ppp}, backbone not given here) [SEQ ID No. 140]	highest IFN-α-inducing activity
auuaggggac acacacacac acacacacac (AUUAGGGGACACACACACACACACACACAC; RNA, 5' {ppp}, backbone not given here) [SEQ ID No. 171]	highest IFN-α-inducing activity
auggggggac acacacacac acacacacac (AUGGGGGGACACACACACACACACACACAC; RNA, 5' {ppp}, backbone not given here) [SEQ ID No. 172]	highest IFN-α-inducing activity
aaguggggac acacacacac acacacacac (AAGUGGGGACACACACACACACACACACAC; RNA, 5' {ppp}, backbone not given here) [SEQ ID No. 174]	highest IFN-α-inducing activity
aaccggggac acacacacac acacacacac (AACCGGGGACACACACACACACACACACAC; RNA, 5' {ppp}, backbone not given here) [SEQ ID No. 156]	highest IFN-α-inducing activity
acgaggggac acacacacac acacacacac (ACGAGGGGACACACACACACACACACACAC; RNA, 5' {ppp}, backbone not given here) [SEQ ID No. 151]	highest IFN-α-inducing activity
aaacggggac acacacacac acacacacac (AAACGGGGACACACACACACACACACACAC; RNA, 5' {ppp}, backbone not given here) [SEQ ID No. 154]	highest IFN-α-inducing activity
acugggggac acacacacac acacacacac (ACUGGGGGACACACACACACACACACACAC; RNA, 5' {ppp}, backbone not given here) [SEQ ID No. 152]	highest IFN-α-inducing activity
agaaggggac acacacacac acacacacac (AGAAGGGGACACACACACACACACACACAC; RNA, 5' {ppp}, backbone not given here) [SEQ ID No. 165]	highest IFN-α-inducing activity
aagcggggac acacacacac acacacacac (AAGCGGGGACACACACACACACACACACAC; RNA, 5' {ppp}, backbone not given here) [SEQ ID No. 157]	highest IFN-α-inducing activity
aggaggggac acacacacac acacacacac (AGGAGGGGACACACACACACACACACACAC; RNA, 5' {ppp}, backbone not given here) [SEQ ID No. 161]	highest IFN-α-inducing activity
agugggggac acacacacac acacacacac (AGUGGGGGACACACACACACACACACACAC; RNA, 5' {ppp}, backbone not given here) [SEQ ID No. 143]	highest IFN-α-inducing activity
augcggggac acacacacac acacacacac (AUGCGGGGACACACACACACACACACACAC; RNA, 5' {ppp}, backbone not given here) [SEQ ID No. 159]	highest IFN-α-inducing activity

same assay, conditions: monocytes from three donors, 36 hours after transfection; normalized to the mean induction level of all oligonucleotides (=100%)

Substance	IFN-α induction (*100%) mean
acucggggac acacacacac acacacacac (ACUCGGGGACACACACACACACACACACAC; RNA, 5' {ppp}, backbone not given here) [SEQ ID No. 137]	0.98 *100%
agucggggac acacacacac acacacacac (AGUCGGGGACACACACACACACACACACAC; RNA, 5' {ppp}, backbone not given here) [SEQ ID No. 140]	1.00 *100%
accaggggac acacacacac acacacacac (ACCAGGGGACACACACACACACACACACAC; RNA, 5' {ppp}, backbone not given here) [SEQ ID No. 126]	0.79 *100%
aaaaggggac acacacacac acacacacac (AAAAGGGGACACACACACACACACACACAC; RNA, 5' {ppp}, backbone not given here) [SEQ ID No. 121]	0.73 *100%
auuaggggac acacacacac acacacacac (AUUAGGGGACACACACACACACACACACAC; RNA, 5' {ppp}, backbone not given here) [SEQ ID No. 171]	1.36 *100%
aauaggggac acacacacac acacacacac (AAUAGGGGACACACACACACACACACACAC; RNA, 5' {ppp}, backbone not given here) [SEQ ID No. 112]	0.40 *100%
auggggggac acacacacac acacacacac (AUGGGGGGACACACACACACACACACACAC; RNA, 5' {ppp}, backbone not given here) [SEQ ID No. 172]	1.38 *100%
agauggggac acacacacac acacacacac (AGAUGGGGACACACACACACACACACACAC; RNA, 5' {ppp}, backbone not given here) [SEQ ID No. 113]	0.48 *100%
aaguggggac acacacacac acacacacac (AAGUGGGGACACACACACACACACACACAC; RNA, 5' {ppp}, backbone not given here) [SEQ ID No. 174]	1.40 *100%
aaccggggac acacacacac acacacacac (AACCGGGGACACACACACACACACACACAC; RNA, 5' {ppp}, backbone not given here) [SEQ ID No. 156]	1.20 *100%
auacggggac acacacacac acacacacac (AUACGGGGACACACACACACACACACACAC; RNA, 5' {ppp}, backbone not given here) [SEQ ID No. 139]	0.99 *100%
acgaggggac acacacacac acacacacac (ACGAGGGGACACACACACACACACACACAC; RNA, 5' {ppp}, backbone not given here) [SEQ ID No. 151]	1.14 *100%
aaacggggac acacacacac acacacacac (AAACGGGGACACACACACACACACACACAC; RNA, 5' {ppp}, backbone not given here) [SEQ ID No. 154]	1.15 *100%
acugggggac acacacacac acacacacac (ACUGGGGGACACACACACACACACACACAC; RNA, 5' {ppp}, backbone not given here) [SEQ ID No. 152]	1.14 *100%
agccggggac acacacacac acacacacac (AGCCGGGGACACACACACACACACACACAC; RNA, 5' {ppp}, backbone not given here) [SEQ ID No. 128]	0.87 *100%
aggcggggac acacacacac acacacacac (AGGCGGGGACACACACACACACACACACAC; RNA, 5' {ppp}, backbone not given here) [SEQ ID No. 131]	0.91 *100%
acuuggggac acacacacac acacacacac (ACUUGGGGACACACACACACACACACACAC; RNA, 5' {ppp}, backbone not given here) [SEQ ID No. 118]	0.66 *100%
auuuggggac acacacacac acacacacac (AUUUGGGGACACACACACACACACACACAC; RNA, 5' {ppp}, backbone not given here) [SEQ ID No. 138]	0.99 *100%
agaaggggac acacacacac acacacacac (AGAAGGGGACACACACACACACACACACAC; RNA, 5' {ppp}, backbone not given here) [SEQ ID No. 165]	1.29 *100%
aagcggggac acacacacac acacacacac (AAGCGGGGACACACACACACACACACACAC; RNA, 5' {ppp}, backbone not given here) [SEQ ID No. 157]	1.22 *100%
accgggggac acacacacac acacacacac (ACCGGGGGACACACACACACACACACACAC; RNA, 5' {ppp}, backbone not given here) [SEQ ID No. 122]	0.73 *100%
aggaggggac acacacacac acacacacac (AGGAGGGGACACACACACACACACACACAC; RNA, 5' {ppp}, backbone not given here) [SEQ ID No. 161]	1.27 *100%
aauuggggac acacacacac acacacacac (AAUUGGGGACACACACACACACACACACAC; RNA, 5' {ppp}, backbone not given here) [SEQ ID No. 119]	0.67 *100%
agugggggac acacacacac acacacacac (AGUGGGGGACACACACACACACACACACAC; RNA, 5' {ppp}, backbone not given here) [SEQ ID No. 143]	1.01 *100%
auaaggggac acacacacac acacacacac (AUAAGGGGACACACACACACACACACACAC; RNA, 5' {ppp}, backbone not given here) [SEQ ID No. 127]	0.82 *100%
augcggggac acacacacac acacacacac (AUGCGGGGACACACACACACACACACACAC; RNA, 5' {ppp}, backbone not given here) [SEQ ID No. 159]	1.23 *100%

From patent US9381208B2, “Structure and use of 5′ phosphate oligonucleotides” (Rheinische Friedrich-Wilhelms-Universität, priority 2006, dated 2016)
